Results taken from patent publication US20220024851A1, “CRYSTALLINE FORMS OF MULTICYCLIC COMPOUNDS AND USES THEREOF” (Convelo Therapeutics, Inc., priority 2018, published 2022).
Where a name gives a salt, the structure may show the parent alone.

How the values were obtained:
Assay type in all cases: physicochemical
[1] = Thermogravimetric analysis (TGA), thermal decomposition; details: for Decomposition onset: TGA, heated under nitrogen
Procedure: TGA is a method of thermal gravimetric analysis in which changes in physical and chemical properties of a material are measured as a function of increasing temperature (with constant heating rate) or as a function of time (with constant temperature and/or constant mass loss). TGA can provide information about physical phenomena, such as second-order phase transitions, or about chemical phenomena, such as desolvation and/or decomposition.
TG analyses described herein were performed using a Mettler Toledo TGA/DSC3+ analyzer. Balance check was performed using calcium oxalate, and temperature calibration was performed using indium, tin, and zinc. The sample was placed in an aluminum pan. The sample was sealed, the lid pierced, then inserted into the TG furnace. The furnace was heated under nitrogen.

[2] = Aqueous kinetic solubility by aliquot addition method; details: water; for Kinetic Solubility / solubility kinetic: ambient temperature, visual dissolution
From the text: Generated solids were typically observed by polarized light microscopy and, if crystalline (i.e. display birefringence and extinction), analyzed by XRPD. The XRPD patterns were compared to each other and to available reference patterns of salt formers. If unique by XRPD, the materials were further analyzed by ^1H NMR, TGA, DSC, and DVS. Kinetic solubilities of selected materials were estimated by aliquot addition method. Equilibrium solubilities were estimated gravimetrically using supernatants from suspensions equilibrated at ambient temperature for approximately 7-10 days.
Weighed samples of material were treated with aliquots of water at ambient temperature. Samples were typically sonicated between additions to facilitate dissolution. Complete dissolution was observed through visual inspection. Solubilities were calculated based on the total amount of solvent added to achieve complete dissolution and may be greater than the value reported due to incremental solvent addition and the inherent kinetics of dissolution. If dissolution was not observed, values are reported as “less than”. If complete dissolution was observed upon the first aliquot of solvent, values are reported as “greater than”.
Kinetic solubility was estimated by aliquot addition method, and dissolution was judged by visual observations. If dissolution was not observed, values are reported as “less than.” If complete dissolution was observed upon the first aliquot of solvent, values are reported as “greater than.” Kinetic solubility of selected salts is presented in Table 8.

[3] = Dynamic vapor sorption (DVS) / hygroscopicity; details: for Desorption, hysteresis and form change after moisture sorption-desorption: moisture sorption-desorption cycles, XRPD
Procedure: The crystalline forms provided can be additionally characterized by dynamic vapor sorption (DVS), wherein a sample is subjected to varying conditions of humidity and temperature, and the response of the sample is measured gravimetrically. The result of a DVS analysis particularly can be a dual curve providing sample weight percent as a function of relative humidity (RH) over time, a dual curve providing sample water content as a function of RH over time, a curve providing weight percent in relation to RH, or a curve providing water content in relation to RH. Equipment useful for measuring such data is known in the art, and any such equipment can be used to measure the compounds according to the present invention. In certain embodiments, DVS analysis can be carried out by scanning at a series of specific RH values. Thus, specific crystalline forms according to the invention may be identified and described in relation to the representative graph and/or the approximate peaks obtained in DVS analysis, particularly scanning from 0% to 95% RH with a step interval of 5% or 10% RH.
Hygroscopicities of the materials described in the present disclosure are classified according to Table 1
DVS data were collected on a VTI SGA-100 Vapor Sorption Analyzer. NaCl and PVP were used as calibration standards. Samples were not dried prior to analysis. Sorption and desorption data were collected over a range from 5% to 95% RH at 10% RH increments under a nitrogen purge. The equilibrium criterion used for analysis was less than 0.0100% weight change in 5 minutes with a maximum equilibration time of 3 hours. Data were not corrected for the initial moisture content of the samples.

[4] = upon increase of RH / entire RH range

SMILES | Decomposition onset [1] [°C] | Kinetic Solubility [2] [µg/mL] | Kinetic Solubility ([2]; listed as Besylate slat) [µg/mL] | DVS weight gain ([3]; 5-85% RH) | DVS weight gain ([3]; 85-95% RH) | Desorption, hysteresis and form change after moisture sorption-desorption [3] | Hygroscopicity [3, 4] | DVS weight gain ([3]; 5-75% RH) | DVS weight gain ([3]; 75-95% RH) | Hygroscopicity ([3]; above 75% RH) | Hygroscopicity ([3]; below 75% RH) | solubility kinetic [2] [µg/mL] | fold more soluble than all other crystalline salts isolated (kinetic solubility) ([2]; vs other crystalline salts) | DVS weight gain ([3]; 5 to 95% RH) | Thermal stability [1] | DVS weight gain ([3]; 5-95% RH) | Hygroscopicity ([3]; upon increase of RH / entire RH range, listed as salicylate) | Hygroscopicity ([3]; above 65% RH) | Hygroscopicity ([3]; below 65% RH)
CCN(C/C=C\c1ccc(C2CCCCC2)c(Cl)c1)C1CCCCC1.O=S(=O)(O)c1ccccc1 [Besylate salt, Besylate Salt of Cis-N-cyclohexyl-N-ethyl-3-(3-chloro-4-cyclohexylphenyl)prop-2-enylamine] | 274 | <600 | < 1000 | about 0.88% | about 0.85% | complete desorption without form change and with almost no hysteresis | limited hygroscopicity | – | – | – | – | – | – | – | – | – | – | – | –
CCN(C/C=C\c1ccc(C2CCCCC2)c(Cl)c1)C1CCCCC1.O=S(=O)(O)CCS(=O)(=O)O [Edisylate salt, Edisylate Salt of Cis-N-cyclohexyl-N-ethyl-3-(3-chloro-4-cyclohexylphenyl)prop-2-enylamine] | 260 | – | – | – | – | form change to a highly disordered material | – | about 0.35% | about 18.55% | significant hygroscopicity and deliquesces | non-hygroscopic | – | – | – | – | – | – | – | –
CCN(C/C=C\c1ccc(C2CCCCC2)c(Cl)c1)C1CCCCC1.CCS(=O)(=O)O [Esylate salt, Esylate Salt of Cis-N-cyclohexyl-N-ethyl-3-(3-chloro-4-cyclohexylphenyl)prop-2-enylamine] | 268 | – | – | about 0.35% | 0.51% | complete desorption without hysteresis or form change | limited hygroscopicity | – | – | – | – | 30000 | more than 30 fold | about 0.9 wt % | – | – | – | – | –
CCN(C/C=C\c1ccc(C2CCCCC2)c(Cl)c1)C1CCCCC1 [Salicylate salt, Salicylate Salt of Cis-N-cyclohexyl-N-ethyl-3-(3-chloro-4-cyclohexylphenyl)prop-2-enylamine] | 212 | – | – | – | – | – | non-hygroscopic | – | – | – | – | < 1000 | – | about 0.04 wt % | thermally stable | about 0.04% | lack of hygroscopicity | – | –
CCN(C/C=C\c1ccc(C2CCCCC2)c(Cl)c1)C1CCCCC1.O=C(O)c1ccc2ccccc2c1O [Xinafoate salt, Xinafoate Salt of Cis-N-cyclohexyl-N-ethyl-3-(3-chloro-4-cyclohexylphenyl)prop-2-enylamine] | 146 | – | – | about 0.88% | about 0.85% | A form change is suggested | – | – | – | – | – | – | – | – | – | – | – | limited hygroscopicity | non-hygroscopic
